Biological target: S1P1 receptors (Homo sapiens, UniProt P21453)
Assay: 35S-GTPyS binding assay
Format: biochemical
Conditions: 35S-GTPyS binding on membranes; compound 0.1 nM-10 μM; 10 μM S1P as 100% maximum efficacy; 90 min at room temperature
Protocol: The effect of the compounds was measured using a 35S-GTPyS binding assay. Briefly, membranes were incubated in a buffer containing 20 mM HEPES pH 7.4, 100 mM NaCl, 10 mM MgCl2, 10 μM GDP, 50 μg/ml saponin and 0.2% fatty acid-free BSA at various concentrations (0.1 nM-10 μM) and 0.1 nM 35S-GTPyS. 10 μM S1P was used as 100% maximum efficacy. The assay was incubated for 90 min at room temperature with gentle mixing, and terminated by filtrating the reaction mixture through GF/C filter plates using the Manifold Filtration System. The filters were immediately washed with sodium phosphate pH 7.4 buffers. After drying the filter plates scintillant liquid were added to each well and 35S-GTPyS binding was measured on a Trilux Scintillation Counter.

Chain of S1P1 receptors (P21453 whole entry): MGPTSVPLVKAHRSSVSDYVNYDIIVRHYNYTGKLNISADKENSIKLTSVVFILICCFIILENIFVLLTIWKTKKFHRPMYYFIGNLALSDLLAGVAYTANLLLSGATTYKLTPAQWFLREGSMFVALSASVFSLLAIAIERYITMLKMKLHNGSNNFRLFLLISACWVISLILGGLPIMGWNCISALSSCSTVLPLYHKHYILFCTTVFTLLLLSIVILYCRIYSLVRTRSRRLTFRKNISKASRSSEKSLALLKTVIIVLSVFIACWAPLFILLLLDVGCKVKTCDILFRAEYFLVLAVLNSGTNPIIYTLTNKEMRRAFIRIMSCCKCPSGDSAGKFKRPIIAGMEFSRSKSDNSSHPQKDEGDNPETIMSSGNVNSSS

`CCn1nc(-c2nc(-c3ccc(CCN)cc3C)no2)c2c1CC(C)(C)CC2` [Example 48, 2-(4-(5-(1-Ethyl-6,6-dimethyl-4,5,6,7-tetrahydro-1H-indazol-3-yl)-1,2,4-oxadiazol-3-yl)-3-methylphenyl)ethanamine] gave an EC50 of 8 nM.
With `Cc1cc(-c2noc(-c3nn(C)c4c3CCC(C)(C)C4)n2)cc(C)c1CCN[C@@H](C)C(=O)O` [Example 146, N-(2-{2,6-dimethyl-4-[5-(1,6,6-trimethyl-4,5,6,7-tetrahydro-1H-indazol-3-yl)-1,2,4-oxadiazol-3-yl]phenyl}ethyl)-L-alanine] the EC50 was 1.4 nM.
`CCn1nc(-c2nc(-c3cccc4[nH]ccc34)no2)c2c1CC(C)(C)CC2` [Example 187, 5-(1-ethyl-6,6-dimethyl-4,5,6,7-tetrahydro-1H-indazol-3-yl)-3-(1H-indol-4-yl)-1,2,4-oxadiazole] was tested, and the EC50 was 10 nM.
Work on `CCn1nc(-c2nc(-c3ccc(S(N)(=O)=O)cc3)no2)c2c1CC(C)(C)CC2` [Example 5, 4-(5-(1-Ethyl-6,6-dimethyl-4,5,6,7-tetrahydro-1H-indazol-3-yl)-1,2,4-oxadiazol-3-yl)benzenesulfonamide] yielded an EC50 of 40 nM.
`CCn1nc(-c2nc(-c3cc(C)c(CC(N)=O)c(C)c3)no2)c2c1CC(C)(C)CC2` [Example 137, 2-{4-[5-(1-ethyl-6,6-dimethyl-4,5,6,7-tetrahydro-1H-indazol-3-yl)-1,2,4-oxadiazol-3-yl]-2,6-dimethylphenyl}acetamide] gave an EC50 of 3.6 nM.
Work on `CCn1nc(-c2nc(-c3ccncc3C)no2)c2c1CC(C)(C)CC2` [Example 36, 5-(1-Ethyl-6,6-dimethyl-4,5,6,7-tetrahydro-1H-indazol-3-yl)-3-(3-methylpyridin-4-yl)-1,2,4-oxadiazole] yielded an EC50 of 48 nM.
For `Cc1cc(-c2noc(-c3nn(C)c4c3CCC(C)(C)C4)n2)cc(C)c1CCO` [Example 141, 2-{2,6-dimethyl-4-[5-(1,6,6-trimethyl-4,5,6,7-tetrahydro-1H-indazol-3-yl)-1,2,4-oxadiazol-3-yl]phenyl}ethanol], the EC50 was 4.6 nM.
With `Cc1cc(-c2noc(-c3nn(C)c4c3CCC(C)(C)C4)n2)cc(C)c1CCN1CC(C(=O)O)C1` [Example 91, 1-(2,6-Dimethyl-4-(5-(1,6,6-trimethyl-4,5,6,7-tetrahydro-1H-indazol-3-yl)-1,2,4-oxadiazol-3-yl)phenethyl)azetidine-3-carboxylic Acid] the EC50 was 16 nM.
`CCc1cc(-c2noc(-c3nn(CC)c4c3CCC(C)(C)C4)n2)c(C)nc1CCN` [Example 138, (2-{3-ethyl-5-[5-(1-ethyl-6,6-dimethyl-4,5,6,7-tetrahydro-1H-indazol-3-yl)-1,2,4-oxadiazol-3-yl]-6-methylpyridin-2-yl}ethyl)amine] was tested, and the EC50 was 13 nM.
`CCn1nc(-c2nc(-c3ccc(CCNCC(=O)O)c(C(F)(F)F)c3)no2)c2c1CC(C)(C)CC2` [Example 162, N-{2-[4-[5-(1-ethyl-6,6-dimethyl-4,5,6,7-tetrahydro-1H-indazol-3-yl)-1,2,4-oxadiazol-3-yl]-2-(trifluoromethyl)phenyl]ethyl}glycine] was tested, and the EC50 was 0.56 nM.
Molecule `Cc1cc(-c2noc(-c3noc4c3CCC(C)(C)C4)n2)cc(C)c1CC(O)CO` (stereo not drawn) [Example 170, 3-{4-[5-(6,6-dimethyl-4,5,6,7-tetrahydro-1,2-benzisoxazol-3-yl)-1,2,4-oxadiazol-3-yl]-2,6-dimethylphenyl}propane-1,2-diol] has an EC50 of 8.3 nM.
With `CCn1nc(-c2nc(-c3ccc4c(c3)CCC(NCC(=O)O)C4)no2)c2c1CC(C)(C)CC2` (stereo not drawn) [Example 68, 2-(6-(5-(1-Ethyl-6,6-dimethyl-4,5,6,7-tetrahydro-1H-indazol-3-yl)-1,2,4-oxadiazol-3-yl)-1,2,3,4-tetrahydronaphthalen-2-ylamino)ethanoic Acid] the EC50 was 1.9 nM.
Molecule `Cc1cc(-c2noc(-c3nn(C)c4c3CCC(C)(C)C4)n2)cc(C)c1CCNC(C)(C)C` [Example 104, N-(2-{2,6-dimethyl-4-[5-(1,6,6-trimethyl-4,5,6,7-tetrahydro-1H-indazol-3-yl)-1,2,4-oxadiazol-3-yl]phenyl}ethyl)-2-methylpropan-2-amine] has an EC50 of 8.5 nM.
Work on `Cn1nc(-c2nnc(-c3ccc(CCN4CC(C(=O)O)C4)c(C(F)(F)F)c3)s2)c2c1CC(C)(C)CC2` [Example 198, 1-(2-(trifluoromethyl)-4-(5-(1,6,6-trimethyl-4,5,6,7-tetrahydro-1H-indazol-3-yl)-1,3,4-thiadiazol-2-yl)phenethyl)azetidine-3-carboxylic Acid] yielded an EC50 of 12 nM.
In the case of `Cc1cc(-c2nnc(-c3nn(C)c4c3CCC(C)(C)C4)s2)cc(C)c1OCCN` [Example 139, (2-{2,6-dimethyl-4-[5-(1,6,6-trimethyl-4,5,6,7-tetrahydro-1H-indazol-3-yl)-1,3,4-thiadiazol-2-yl]phenoxy}ethyl)amine], the EC50 is reported as 7.3 nM.
With `CCc1cc(-c2noc(-c3nn(CC(F)(F)F)c4c3CCC(C)(C)C4)n2)c(C)nc1O` [Example 56, 5-(5-(6,6-Dimethyl-1-(2,2,2-trifluoroethyl)-4,5,6,7-tetrahydro-1H-indazol-3-yl)-1,2,4-oxadiazol-3-yl)-3-ethyl-6-methylpyridin-2-ol] the EC50 was 31 nM.
With `CC1(C)CCc2c(-c3nc(-c4ccc(C(N)=O)cc4)no3)nn(Cc3ccccc3)c2C1` [Example 21, 4-(5-(1-Benzyl-6,6-dimethyl-4,5,6,7-tetrahydro-1H-indazol-3-yl)-1,2,4-oxadiazol-3-yl)benzamide] the EC50 was 18 nM.
`Cc1cc(-c2noc(-c3noc4c3CCC(C)(C)C4)n2)cc(C)c1CCNCC(=O)O` [Example 74] showed an EC50 of 1.7 nM.
`Cc1cc(-c2noc(-c3nn(C)c4c3CCC(C)(C)C4)n2)cc(C)c1CCN1CCC(CC(=O)O)CC1` [Example 143, [1-(2-{2,6-dimethyl-4-[5-(1,6,6-trimethyl-4,5,6,7-tetrahydro-1H-indazol-3-yl)-1,2,4-oxadiazol-3-yl]phenyl}ethyl)piperidin-4-yl]acetic acid] gave an EC50 of 5.1 nM.
`CCn1nc(-c2nc(-c3ccc(CCC(=O)O)cc3C)no2)c2c1CC(C)(C)CC2` [Example 42, 3-(4-(5-(1-Ethyl-6,6-dimethyl-4,5,6,7-tetrahydro-1H-indazol-3-yl)-1,2,4-oxadiazol-3-yl)-3-methylphenyl)propanoic Acid] showed an EC50 of 16 nM.
In the case of `CCn1nc(-c2noc(-c3ccncc3)n2)c2c1CC(C)(C)CC2` [Example 99, 3-(1-Ethyl-6,6-dimethyl-4,5,6,7-tetrahydro-1H-indazol-3-yl)-5-(pyridin-4-yl)-1,2,4-oxadiazole], the EC50 is reported as 146 nM.
`CCn1nc(-c2nc(-c3ccc(S(=O)(=O)NCCC(=O)O)cc3C)no2)c2c1CC(C)(C)CC2` [Example 117, N-({4-[5-(1-ethyl-6,6-dimethyl-4,5,6,7-tetrahydro-1H-indazol-3-yl)-1,2,4-oxadiazol-3-yl]-3-methylphenyl}sulfonyl)-beta-alanine] gave an EC50 of 11.7 nM.
With `CCn1nc(-c2nc(-c3ccc(S(=O)(=O)NCCC(=O)O)c(Cl)c3)no2)c2c1CC(C)(C)CC2` [Example 97, 3-(2-Chloro-4-(5-(1-ethyl-6,6-dimethyl-4,5,6,7-tetrahydro-1H-indazol-3-yl)-1,2,4-oxadiazol-3-yl)phenylsulfonamido)propanoic Acid] the EC50 was 26 nM.
`CCn1nc(-c2nc(-c3ccc(N4CCN(CCC(=O)O)CC4)cc3)no2)c2c1CC(C)(C)CC2` [Example 8, 3-(4-(4-(5-(1-ethyl-6,6-dimethyl-4,5,6,7-tetrahydro-1H-indazol-3-yl)-1,2,4-oxadiazol-3-yl)phenyl)piperazin-1-yl)propanoic Acid] gave an EC50 of 17 nM.
